Where two headings read alike, the source gives them in different places.
Tests used:
Settings in all cases: Metribuzin 840 g ai/ha alone, soil spray
Soybean crop [1] = experiment: effect on plant height of Soybean crop; assay type: in vivo
Method: (§1) Experiments were carried out to evaluate the phytotoxicity, effect on plant height and effect on number of plants standing after treatments with combinations of one or more triazinone herbicides with one or more safeners.
(§2) Application method was spray and applications were made to soil.

Soybean plants = experiment: effect on number of standing Soybean plants; assay type: in vivo
Method: as §1, §2

Ipomoea hederacea = experiment: % weed control in Soybean crop; assay type: in vivo
Method: as §1, §2

Soybean crop [2] = tested on: Soybean crop
Method: as §1, §2

SMILES: CSc1nnc(C(C)(C)C)c(=O)n1N [Metribuzin, 4-amino-6-tert-butyl-4,5-dihydro-3-methylthio-1,2,4-triazin-5-one]
- Plant height 28 DAA (Soybean crop [1]; Table 1 treatment set): 5.80
- Plant height 28 DAA (Soybean crop [1]; Table 2 treatment set): 7.05
- Number of plants standing 28 DAA (Soybean plants; Table 1 treatment set): 3.0
- Number of plants standing 28 DAA (Soybean plants; Table 2 treatment set): 3.8
- % Weed Control 7 DAA (Ipomoea hederacea; Table 1 treatment set): 60.0%
- % Weed Control 7 DAA (Ipomoea hederacea; Table 2 treatment set): 72.5%
- % Weed Control 14 DAA (Ipomoea hederacea; Table 1 treatment set): 92.5%
- % Weed Control 14 DAA (Ipomoea hederacea; Table 2 treatment set): 96.3%
- % Weed Control 21 DAA (Ipomoea hederacea; Table 1 treatment set): 98.8%
- % Weed Control 21 DAA (Ipomoea hederacea; Table 2 treatment set): 96.8%
- % Weed Control 28 DAA (Ipomoea hederacea; Table 1 treatment set): 95.0%
- % Weed Control 28 DAA (Ipomoea hederacea; Table 2 treatment set): 98.8%
- % Weed Control 35 DAA (Ipomoea hederacea; Table 1 treatment set): 96.3%
- % Weed Control 35 DAA (Ipomoea hederacea; Table 2 treatment set): 98.8%
- % Phytotoxicity 7 DAA (Soybean crop [2]; Table 1 treatment set): 6.3%
- % Phytotoxicity 7 DAA (Soybean crop [2]; Table 2 treatment set): 7.5%
- % Phytotoxicity 21 DAA (Soybean crop [2]; Table 1 treatment set): 65.0%
- % Phytotoxicity 21 DAA (Soybean crop [2]; Table 2 treatment set): 62.5%
- % Phytotoxicity 35 DAA (Soybean crop [2]; 35 DAA, Table 1 treatment set): 81.3%
